Assay results published in ChEMBL document CHEMBL1149513, “Arylpropionylpiperazines as antagonists of the human melanocortin-4 receptor” (Bioorg Med Chem Lett, 2006).

Legend:
Melanocortin receptor 4 [1] = target: T1, Melanocortin receptor 4 (Homo sapiens, UniProt P32245); test: Displacement of [125I]NDP-MSH from human MC4R expressed in HEK293 cells; type: cell-based
[2] = target: Melanocyte-stimulating hormone receptor (Homo sapiens) (UniProt Q01726); test: Inhibition of [125I]NDP-MSH binding to human MC1R expressed in HEK293 cells; type: cell-based; conditions: concentration not given here
Melanocortin receptor 3 = Melanocortin receptor 3 (Homo sapiens, UniProt P41968); test: Displacement of [125I]NDP-MSH from human MC3R expressed in HEK293 cells; type: cell-based
Melanocortin receptor 5 = Melanocortin receptor 5 (Homo sapiens, UniProt P33032); test: Displacement of [125I]NDP-MSH from human MC5R expressed in HEK293 cells; type: cell-based
[3] = Volume of distribution in mouse at 5 mg/kg, iv; type: ADME, organism-based; parameters: dose 5 mg/kg, route intravenous; conditions: in vivo, read-out: Vdss
[4] = Bioavailability in mouse at 10 mg/kg, po; type: ADME, organism-based; conditions: in vivo
[5] = Lipophilicity, Log D of the compound; type: physicochemical; conditions: octanol/water
Mus musculus [6] = test: AUC in mouse at 10 mg/kg, po; type: ADME, organism-based, Plasma; parameters: dose 10 mg/kg, route oral; conditions: in vivo
[7] = Cmax in mouse at 10 mg/kg, po; type: ADME, organism-based; parameters: dose 10 mg/kg, route oral; conditions: in vivo
[8] = Tmax in mouse at 10 mg/kg, po; type: ADME, organism-based; parameters: dose 10 mg/kg, route oral; conditions: in vivo
[9] = Drug level in mouse brain after 1 hr at 5 mg/kg, iv; type: ADME, organism-based; parameters: dose 5 mg/kg, route intravenous; conditions: read-out: Drug uptake
[10] = Drug level in mouse brain after 4 hrs at 5 mg/kg, iv; type: ADME, organism-based; parameters: dose 5 mg/kg, route intravenous; conditions: read-out: Drug uptake
[11] = Ratio of drug level in brain against plasma in mouse after 4 hrs at 5 mg/kg, iv; type: ADME, organism-based; parameters: dose 5 mg/kg, route intravenous; conditions: read-out: BPR
[12] = Half life in mouse at 5 mg/kg, iv; type: ADME, organism-based; parameters: dose 5 mg/kg, route intravenous; conditions: in vivo
[13] = Ratio of drug level in brain against plasma in mouse after 1 hr at 5 mg/kg, iv; type: ADME, organism-based; parameters: dose 5 mg/kg, route intravenous; conditions: read-out: BPR
[14] = Clearance in mouse at 5 mg/kg, iv; type: ADME, organism-based; parameters: dose 5 mg/kg, route intravenous; conditions: in vivo
Mus musculus [15] = test: AUC in mouse at 5 mg/kg, iv; type: ADME, organism-based, Plasma; parameters: dose 5 mg/kg, route intravenous; conditions: in vivo
Melanocortin receptor 4 [16] = target: T1, Melanocortin receptor 4; test: Activity at MC4R assessed as inhibition of alpha-MSH-stimulated cAMP production; type: functional
[17] = target: Melanocortin receptor (M4 and M5) (Homo sapiens) (UniProt P32245+P33032); test: Selectivity for MC4R over MC5R; type: protein assay
Melanocortin receptor (M4 and M5) (Homo sapiens), sequence (P32245 whole entry, looked up): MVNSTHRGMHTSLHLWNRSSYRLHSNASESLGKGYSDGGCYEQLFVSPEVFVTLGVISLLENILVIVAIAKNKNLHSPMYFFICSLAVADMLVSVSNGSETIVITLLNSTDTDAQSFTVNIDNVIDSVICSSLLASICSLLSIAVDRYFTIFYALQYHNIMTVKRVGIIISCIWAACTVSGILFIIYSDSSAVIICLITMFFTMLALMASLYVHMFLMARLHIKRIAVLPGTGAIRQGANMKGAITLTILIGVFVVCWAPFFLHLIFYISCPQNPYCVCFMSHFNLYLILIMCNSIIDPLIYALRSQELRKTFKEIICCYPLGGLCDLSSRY
Melanocortin receptor (M4 and M5) (Homo sapiens), sequence (P33032 whole entry, looked up): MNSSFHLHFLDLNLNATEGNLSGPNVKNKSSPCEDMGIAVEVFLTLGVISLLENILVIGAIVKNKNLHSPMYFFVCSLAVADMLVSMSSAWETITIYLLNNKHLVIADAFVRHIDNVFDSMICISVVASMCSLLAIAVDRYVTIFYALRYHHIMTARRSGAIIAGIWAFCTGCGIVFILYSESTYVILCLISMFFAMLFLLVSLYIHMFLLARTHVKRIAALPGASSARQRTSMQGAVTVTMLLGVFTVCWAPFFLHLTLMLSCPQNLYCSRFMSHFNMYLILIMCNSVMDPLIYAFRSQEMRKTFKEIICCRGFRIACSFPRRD

Melanocortin receptor 5, sequence (P33032 whole entry): as the sequence (P33032 whole entry, looked up) above
Melanocortin receptor 3, sequence (P41968 whole entry): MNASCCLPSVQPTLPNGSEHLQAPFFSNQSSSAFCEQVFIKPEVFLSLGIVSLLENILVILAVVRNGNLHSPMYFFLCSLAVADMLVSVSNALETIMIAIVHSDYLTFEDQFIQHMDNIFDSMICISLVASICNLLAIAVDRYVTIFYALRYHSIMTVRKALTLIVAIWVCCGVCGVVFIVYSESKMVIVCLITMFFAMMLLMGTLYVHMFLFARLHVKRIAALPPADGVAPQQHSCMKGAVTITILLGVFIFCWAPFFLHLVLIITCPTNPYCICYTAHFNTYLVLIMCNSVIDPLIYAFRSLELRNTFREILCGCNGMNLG
T1 sequence (P32245 whole entry): as the sequence (P32245 whole entry, looked up) above
Melanocyte-stimulating hormone receptor (Homo sapiens), sequence (Q01726 whole entry, looked up): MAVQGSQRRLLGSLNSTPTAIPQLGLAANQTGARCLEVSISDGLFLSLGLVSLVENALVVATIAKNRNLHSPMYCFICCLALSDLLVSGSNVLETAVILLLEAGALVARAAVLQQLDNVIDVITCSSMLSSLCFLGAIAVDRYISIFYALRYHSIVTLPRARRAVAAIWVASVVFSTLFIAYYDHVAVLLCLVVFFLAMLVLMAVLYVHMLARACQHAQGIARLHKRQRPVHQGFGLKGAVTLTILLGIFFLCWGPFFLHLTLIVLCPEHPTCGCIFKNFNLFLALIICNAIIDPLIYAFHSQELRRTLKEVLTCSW

| SMILES | Ki (Melanocortin receptor 4 [1]) [µM] | further results |
| --- | --- | --- |
| CC(C)C[C@H](NC(=O)CCN)c1cc(C(F)(F)F)ccc1N1CCN(C(=O)CCc2ccc(Cl)cc2Cl)CC1 | 0.025 |  |
| CCCCC(N)c1cc(C(F)(F)F)ccc1N1CCN(C(=O)CCc2ccc(Cl)cc2Cl)CC1 (stereo not given) | 0.19 |  |
| CCC(C)[C@H](NC(C)=O)c1cc(C(F)(F)F)ccc1N1CCN(C(=O)CCc2ccc(Cl)cc2Cl)CC1 (stereo not given in full) | 0.36 |  |
| CC(C)C[C@H](N)c1cc(C(F)(F)F)ccc1N1CCN(C(=O)CCc2ccc(S(C)(=O)=O)cc2)CC1 | 4.9 |  |
| COc1cc(OC)c(OC)cc1CCC(=O)N1CCN(c2ccc(C(F)(F)F)cc2[C@@H](N)CC(C)C)CC1 | 6.1 |  |
| NCCNC(COCc1ccccc1)c1cc(F)ccc1N1CCN(C(=O)CCc2ccc(Cl)cc2Cl)CC1 (stereo not given) | 0.4 |  |
| COc1cccc(CCC(=O)N2CCN(c3ccc(C(F)(F)F)cc3[C@@H](N)CC(C)C)CC2)c1 | 4 |  |
| CC(C)C[C@H](N)c1cc(C(F)(F)F)ccc1N1CCN(C(=O)CCc2ccccc2O)CC1 | 3.3 |  |
| COc1ccc(CCC(=O)N2CCN(c3ccc(C(F)(F)F)cc3[C@@H](N)CC(C)C)CC2)cc1 | 0.35 |  |
| CC(C)C[C@H](N)c1cc(C(F)(F)F)ccc1N1CCN(C(=O)CCc2ccccc2F)CC1 | 2.8 |  |
| COc1ccc(CCC(=O)N2CCN(c3ccc(C(F)(F)F)cc3[C@@H](N)CC(C)C)CC2)cc1OC | 4.3 |  |
| CCC(C)[C@H](NC[C@H](C)N)c1cc(C(F)(F)F)ccc1N1CCN(C(=O)CCc2ccc(Cl)cc2Cl)CC1 (stereo not given in full) | 0.089 |  |
| CCN[C@H](c1cc(C(F)(F)F)ccc1N1CCN(C(=O)CCc2ccc(Cl)cc2Cl)CC1)C(C)CC (stereo not given in full) | 0.092 |  |
| CCC(C)[C@H](NCCCN)c1cc(C(F)(F)F)ccc1N1CCN(C(=O)CCc2ccc(Cl)cc2Cl)CC1 (stereo not given in full) | 0.03 |  |
| CC(C)C[C@H](N)c1cc(F)ccc1N1CCN(C(=O)CCc2ccc(Cl)cc2Cl)CC1 | 0.094 |  |
| CCC(C)[C@H](NCCN)c1cc(C(F)(F)F)ccc1N1CCN(C(=O)CCc2ccc(Cl)cc2Cl)CC1 (stereo not given in full) | 0.056 |  |
| CCC(C)[C@H](NC(=O)CN)c1cc(C(F)(F)F)ccc1N1CCN(C(=O)CCc2ccc(Cl)cc2Cl)CC1 (stereo not given in full) | 0.018 |  |
| CC(N)c1cc(C(F)(F)F)ccc1N1CCN(C(=O)CCc2ccc(Cl)cc2Cl)CC1 (stereo not given) | 0.49 |  |
| CC(C)C[C@H](N)c1cccc(F)c1N1CCN(C(=O)CCc2ccc(Cl)cc2Cl)CC1 | 0.11 | inhibition [2]: 21%; Ki (Melanocortin receptor 3): 1.4 µM; Ki (Melanocortin receptor 5): 1.2 µM |

| SMILES | Ki (Melanocortin receptor 4 [1]) [µM] | further results |
| --- | --- | --- |
| CC(C)C[C@H](N)c1cc(C(F)(F)F)ccc1N1CCN(C(=O)CCc2ccc(O)cc2)CC1 | > 10 |  |
| CCC(C)[C@H](N)c1cc(C(F)(F)F)ccc1N1CCN(C(=O)CCc2ccc(Cl)cc2)CC1 (stereo not given in full) | 0.086 |  |
| CCC(C)[C@H](NCCc1ccccc1)c1cc(C(F)(F)F)ccc1N1CCN(C(=O)CCc2ccc(Cl)cc2Cl)CC1 (stereo not given in full) | 2.6 |  |
| CC(C)C(N)c1cc(C(F)(F)F)ccc1N1CCN(C(=O)CCc2ccc(Cl)cc2Cl)CC1 (stereo not given) | 0.14 |  |
| CC(C)C[C@H](N)c1cc(C(F)(F)F)ccc1N1CCN(C(=O)CCc2cn(C)c3ccccc23)CC1 | 3 |  |
| CCC(C)[C@H](NS(C)(=O)=O)c1cc(C(F)(F)F)ccc1N1CCN(C(=O)CCc2ccc(Cl)cc2Cl)CC1 (stereo not given in full) | 1.8 |  |
| CCC(C)C(N)c1cc(C(F)(F)F)ccc1N1CCN(C(=O)CCc2ccc(Cl)cc2Cl)CC1 (stereo not given) | 0.16 |  |
| COc1ccccc1CCC(=O)N1CCN(c2ccc(C(F)(F)F)cc2[C@@H](N)CC(C)C)CC1 | 1.4 |  |
| CC(C)C[C@H](N)c1cc(C(F)(F)F)ccc1N1CCN(C(=O)CCc2cccc(C(F)(F)F)c2)CC1 | 2.2 |  |
| CCC(C)[C@H](NCc1ccccc1)c1cc(C(F)(F)F)ccc1N1CCN(C(=O)CCc2ccc(Cl)cc2Cl)CC1 (stereo not given in full) | 5.9 |  |
| CC(C)C[C@H](N)c1cc(C(F)(F)F)ccc1N1CCN(C(=O)CCc2ccccc2Cl)CC1 | 1.7 |  |
| CC(C)C[C@H](N)c1cc(C(F)(F)F)ccc1N1CCN(C(=O)CCc2csc3ccccc23)CC1 | 2.3 |  |
| CC(C)C[C@H](N)c1cc(C(F)(F)F)ccc1N1CCN(C(=O)CCc2c(Cl)cccc2Cl)CC1 | 2.6 |  |
| CCC(C)[C@H](NC[C@H]1CCCN1)c1cc(C(F)(F)F)ccc1N1CCN(C(=O)CCc2ccc(Cl)cc2Cl)CC1 (stereo not given in full) | 0.11 |  |
| COCCN[C@@H](CC(C)C)c1cc(C(F)(F)F)ccc1N1CCN(C(=O)CCc2ccc(Cl)cc2Cl)CC1 | 0.62 |  |
| CN[C@@H](CC(C)C)c1cc(C(F)(F)F)ccc1N1CCN(C(=O)CCc2ccc(Cl)cc2Cl)CC1 | 1.9 |  |
| CCC(C)[C@H](NCc1ccccc1F)c1cc(C(F)(F)F)ccc1N1CCN(C(=O)CCc2ccc(Cl)cc2Cl)CC1 (stereo not given in full) | > 10 |  |
| CC(C)C[C@H](N)c1cc(C(F)(F)F)ccc1N1CCN(C(=O)CCc2ccc(Cl)cc2Cl)CC1 | 0.074 |  |
| CCC(C)[C@H](NC(=O)CCN)c1cc(C(F)(F)F)ccc1N1CCN(C(=O)CCc2ccc(Cl)cc2Cl)CC1 (stereo not given in full) | 0.013 | Vd [3]: 1.6 L/kg; bioavailability [4]: 26.1%; logD [5]: 4; AUC (Mus musculus [6]): 12100 ng·h/mL; Cmax [7]: 1170 ng/mL; Tmax [8]: 6 h; concentration at 1 h [9]: 62 ng/g; concentration at 4 h [10]: 70 ng/g; Kp at 4 h [11]: 0.03; half-life [12]: 5.2 h; Kp at 1 h [13]: 0.02; inhibition [2]: 17%; Ki (Melanocortin receptor 3): 0.8 µM; Ki (Melanocortin receptor 5): 0.17 µM; clearance [14]: 3.5 mL/min/kg; AUC (Mus musculus [15]): 23100 ng·h/mL; IC50 (Melanocortin receptor 4 [16]): 1.1 µM |

| SMILES | Ki (Melanocortin receptor 4 [1]) [µM] | further results |
| --- | --- | --- |
| Cc1cccc(CCC(=O)N2CCN(c3ccc(C(F)(F)F)cc3[C@@H](N)CC(C)C)CC2)c1 | 2.1 |  |
| CCC(C)[C@H](NCC1CCCO1)c1cc(C(F)(F)F)ccc1N1CCN(C(=O)CCc2ccc(Cl)cc2Cl)CC1 (stereo not given in full) | 0.78 |  |
| CCC(C)CN[C@H](c1cc(C(F)(F)F)ccc1N1CCN(C(=O)CCc2ccc(Cl)cc2Cl)CC1)C(C)CC (stereo not given in full) | 2.8 |  |
| CCN[C@@H](CC(C)C)c1cc(C(F)(F)F)ccc1N1CCN(C(=O)CCc2ccc(Cl)cc2Cl)CC1 | 0.17 |  |
| NCCC(=O)NC(COCc1ccccc1)c1cc(F)ccc1N1CCN(C(=O)CCc2ccc(Cl)cc2Cl)CC1 (stereo not given) | 0.21 |  |
| CC(C)C[C@H](N)c1cc(C(F)(F)F)ccc1N1CCN(C(=O)CCc2c[nH]c3ccccc23)CC1 | 0.64 |  |
| Cc1[nH]c2ccccc2c1CCC(=O)N1CCN(c2ccc(C(F)(F)F)cc2[C@@H](N)CC(C)C)CC1 | 1.6 |  |
| CCC(C)[C@H](N)c1cc(C(F)(F)F)ccc1N1CCN(C(=O)CCc2ccc(OC)c(OC)c2Cl)CC1 (stereo not given in full) | 2.5 |  |
| CCOCC(NC(=O)CCN)c1cc(F)ccc1N1CCN(C(=O)CCc2ccc(Cl)cc2Cl)CC1 (stereo not given) | 0.3 |  |
| CCC(C)[C@H](NC(=O)OC)c1cc(C(F)(F)F)ccc1N1CCN(C(=O)CCc2ccc(Cl)cc2Cl)CC1 (stereo not given in full) | 2.4 |  |
| CC(C)C[C@H](N)c1cc(C(F)(F)F)ccc1N1CCN(C(=O)CCc2ccc3c(c2)OCO3)CC1 | 1.5 |  |
| COc1ccc(OC)c(CCC(=O)N2CCN(c3ccc(C(F)(F)F)cc3[C@@H](N)CC(C)C)CC2)c1 | 2.5 |  |
| CC(C)C[C@H](N)c1cc(C(F)(F)F)ccc1N1CCN(C(=O)CCc2cccs2)CC1 | 4.6 |  |
| CC[C@H](C)C(N)c1cc(C(F)(F)F)ccc1N1CCN(C(=O)CCc2ccc(Cl)cc2Cl)CC1 (stereo not given in full) | 0.075 |  |
| CCC(C)[C@H](N)c1cc(C(F)(F)F)ccc1N1CCN(C(=O)CCc2ccc(OC)cc2Cl)CC1 (stereo not given in full) | 0.057 |  |
| CCOCC(N)c1cc(F)ccc1N1CCN(C(=O)CCc2ccc(Cl)cc2Cl)CC1 (stereo not given) | 0.69 |  |
| CC(C)C[C@H](NC(=O)CN)c1cc(C(F)(F)F)ccc1N1CCN(C(=O)CCc2ccc(Cl)cc2Cl)CC1 | 0.019 | Vd [3]: 8.8 L/kg; bioavailability [4]: 11.2%; logD [5]: 4.5; AUC (Mus musculus [6]): 687 ng·h/mL; Cmax [7]: 115 ng/mL; Tmax [8]: 2 h; concentration at 1 h [9]: 43 ng/g; concentration at 4 h [10]: 33 ng/g; Kp at 4 h [11]: 0.17; half-life [12]: 3.8 h; Kp at 1 h [13]: 0.08; inhibition [2]: 18%; Ki (Melanocortin receptor 3): 1.2 µM; Ki (Melanocortin receptor 5): 0.5 µM; clearance [14]: 26.9 mL/min/kg; AUC (Mus musculus [15]): 3070 ng·h/mL; IC50 (Melanocortin receptor 4 [16]): 1.3 µM; Selectivity ratio [17]: > 25 |
| CCC(C)[C@H](NC[C@@H]1CCCN1)c1cc(C(F)(F)F)ccc1N1CCN(C(=O)CCc2ccc(Cl)cc2Cl)CC1 (stereo not given in full) | 0.064 |  |
| NC(COCc1ccccc1)c1cc(F)ccc1N1CCN(C(=O)CCc2ccc(Cl)cc2Cl)CC1 (stereo not given) | 1 |  |
